# Read-outs that look alike come from different tables or passages of the source.
# What was measured:
# in vivo = conditions: dog, iv
# [1] = tested on: Vasopressin-induzierten Koronarspasmen; design: species or system Ratten; conditions: in vivo; for Dauer der antianginösen Wirkung gegenüber Vasopressin: po
# hypotensive Wirkung = conditions: in vivo
# ST-Wellensenkung = conditions: cited from earlier work
# [2] = intraduodenal, Ratten; cited from earlier work
# systolischen Blutdruck = tested on: systolischen Blutdruck; design: species or system Hunde; conditions: in vivo
# Hypotensivum = conditions: orale Verabreichung; cited from earlier work
# [3] = tested on: Blutdruck anästhesierter Ratten; conditions: in vivo
structure (smiles),measurement,setting,value
"O=[N+]([O-])OC(CO)CO [2-GN, Glycerin-2-nitrat]",half-life,in vivo,2.1 h
same,Dauer der antianginösen Wirkung gegenüber Vasopressin,[1],2 to 3 h
"O=[N+]([O-])OCC(CO[N+](=O)[O-])O[N+](=O)[O-] [GTN, Glycerintrinitrat]",hypotensive Wirkung nach Vorbehandlung mit DHE,hypotensive Wirkung,herabgesetzt
same,Hemmung der ST-Wellensenkung,ST-Wellensenkung; in vivo,hemmte
same,"Zeit, nach der kein weiterer Plasmawert der Ausgangssubstanz gemessen werden konnte",[2],≤ 5 min
same,Beginn der Wirkung,systolischen Blutdruck,"0,4 min"
same,Einfluß auf den systolischen Blutdruck,systolischen Blutdruck,senkten
same,Wirksamkeit als Hypotensivum,Hypotensivum,inaktiv
same,Dauer der hypotensiven Wirkung,[3],14 min
same,Hemmung der T-Wellenerhöhung / Vasopressin-induzierten Koronarspasmen,[1],entschieden den stärksten Einfluß
same,Dauer der antianginösen Wirkung gegenüber Vasopressin,[1],2 to 3 h
OCCN(CCO)c1nc(N2CCCCC2)c2nc(N(CCO)CCO)nc(N3CCCCC3)c2n1 [Dipyridamol],Hemmung der ST-Wellensenkung,ST-Wellensenkung; in vivo,unwirksam
"O=[N+]([O-])O[C@H]1CO[C@H]2[C@@H]1OC[C@H]2O[N+](=O)[O-] [ISDN, Isosorbid-dinitrat]",Hemmung der ST-Wellensenkung,"ST-Wellensenkung; oral, Ratten",hemmten

# Reference: patent EP0116944B1 (priority 1983, dated 1984)
